Results from BindingDB's records for doi:10.3109/14756360903017122 (Indian Institute of Chemical Technology, 2010).

Molecular target: Sucrase-isomaltase, intestinal (Rattus norvegicus, UniProt P23739)
Assay: In Vitro α-Glucosidase Inhibitory Assay
Conditions: pH 6.8
Experimental: Rat intestinal acetone powder in normal saline (100: 1; w/v) was sonicated thoroughly and the supernatant was used as a source of crude intestinal α-glucosidase after centrifugation. In brief, […] of test sample ( 5 mg/mL DMSO solution) was reconstituted in […] of 100 mM phosphate buffer (pH 6.8) in a 96-well microplate and incubated with […] of crude intestinal α-glucosidase for 5 min before […] substrate (5 mM pNPG prepared in same buffer) was added. Release of p-nitrophenol was measured at 405 nm spectrophotometrically (SpectraMax Plus384; Molecular Devices Corp., Sunnyvale, CA, USA) 5 min after incubation withsubstrate. Individual blanks for test samples were prepared to correct background absorbance where substrate was replaced with […] of buffer. The control samplecontained […] of dimethylsulfoxide (DMSO) in place of test sample.

Sucrase-isomaltase, intestinal, sequence (P23739 1-1013 limits assumed): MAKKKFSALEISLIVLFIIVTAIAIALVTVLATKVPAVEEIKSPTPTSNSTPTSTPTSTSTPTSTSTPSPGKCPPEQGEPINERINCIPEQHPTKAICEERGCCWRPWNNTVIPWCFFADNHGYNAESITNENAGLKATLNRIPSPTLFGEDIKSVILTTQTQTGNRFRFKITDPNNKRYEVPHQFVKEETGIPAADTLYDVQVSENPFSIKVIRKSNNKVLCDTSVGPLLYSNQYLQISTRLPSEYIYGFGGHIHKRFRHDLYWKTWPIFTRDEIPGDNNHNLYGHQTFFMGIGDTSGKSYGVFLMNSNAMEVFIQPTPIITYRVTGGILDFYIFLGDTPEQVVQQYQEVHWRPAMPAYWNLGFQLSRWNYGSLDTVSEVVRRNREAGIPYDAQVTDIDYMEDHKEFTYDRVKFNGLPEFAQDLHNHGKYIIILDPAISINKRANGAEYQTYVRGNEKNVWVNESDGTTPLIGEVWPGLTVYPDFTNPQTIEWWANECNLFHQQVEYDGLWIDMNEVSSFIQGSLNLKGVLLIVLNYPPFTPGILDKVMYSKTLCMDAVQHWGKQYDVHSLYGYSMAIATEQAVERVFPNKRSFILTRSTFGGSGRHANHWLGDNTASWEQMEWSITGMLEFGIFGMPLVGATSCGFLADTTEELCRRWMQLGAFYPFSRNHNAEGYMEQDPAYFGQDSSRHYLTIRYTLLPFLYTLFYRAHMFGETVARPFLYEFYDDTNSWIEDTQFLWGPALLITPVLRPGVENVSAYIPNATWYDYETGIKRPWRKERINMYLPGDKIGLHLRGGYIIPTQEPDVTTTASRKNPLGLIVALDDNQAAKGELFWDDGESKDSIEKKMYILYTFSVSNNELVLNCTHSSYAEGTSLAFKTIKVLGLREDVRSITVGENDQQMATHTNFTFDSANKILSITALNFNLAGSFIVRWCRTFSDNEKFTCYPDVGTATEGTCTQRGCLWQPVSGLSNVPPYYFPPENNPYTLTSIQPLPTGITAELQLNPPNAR
Sucrase-isomaltase, intestinal, sequence (P23739 1014-1841 limits assumed): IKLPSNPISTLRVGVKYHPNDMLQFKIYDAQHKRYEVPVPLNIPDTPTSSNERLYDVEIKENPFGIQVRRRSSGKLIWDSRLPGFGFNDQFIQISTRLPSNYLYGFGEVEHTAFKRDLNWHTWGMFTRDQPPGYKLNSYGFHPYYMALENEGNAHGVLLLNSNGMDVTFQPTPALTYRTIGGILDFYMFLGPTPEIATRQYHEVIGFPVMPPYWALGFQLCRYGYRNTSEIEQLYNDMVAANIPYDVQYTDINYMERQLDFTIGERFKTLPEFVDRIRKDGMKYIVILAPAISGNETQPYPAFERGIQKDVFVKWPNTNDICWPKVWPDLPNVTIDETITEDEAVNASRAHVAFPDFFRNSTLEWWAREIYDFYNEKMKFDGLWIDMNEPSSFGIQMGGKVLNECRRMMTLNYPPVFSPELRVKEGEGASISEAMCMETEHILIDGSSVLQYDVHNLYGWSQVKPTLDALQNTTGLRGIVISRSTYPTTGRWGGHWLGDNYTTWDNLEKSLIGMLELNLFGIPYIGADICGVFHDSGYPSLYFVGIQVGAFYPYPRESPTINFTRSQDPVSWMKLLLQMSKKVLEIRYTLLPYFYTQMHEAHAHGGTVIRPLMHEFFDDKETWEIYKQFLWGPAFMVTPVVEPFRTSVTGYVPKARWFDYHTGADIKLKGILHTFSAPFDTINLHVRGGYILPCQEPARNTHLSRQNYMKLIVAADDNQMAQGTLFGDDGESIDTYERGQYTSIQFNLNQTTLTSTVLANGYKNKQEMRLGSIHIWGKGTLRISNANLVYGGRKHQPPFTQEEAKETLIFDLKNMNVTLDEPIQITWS

IC50: 99.4 µM
SMILES: O=[N+]([O-])c1ccc2[nH]c(-c3ccncc3)nc2c1 [6-Nitro-2-(4-pyridyl)-1H-benzo[d]imidazole (3e)]
